Measurements published in patent US20250361230A1, “LATS Inhibitors and Uses Thereof” (The USA, as Represented by the Secretary, Dept. of Heath …, priority 2022, published 2025).
Like-named read-outs stand apart in the source and are kept apart here.

Columns and labels:
Assay type in all cases: biochemical
[1] = target: T1, LATS1 (Homo sapiens, UniProt O95835); assay: RBC HotSpot kinase assay (33P-ATP, P81 filter-binding), LATS1; details: read-out: LATS1 IC50
T1 sequence (O95835 1-1130): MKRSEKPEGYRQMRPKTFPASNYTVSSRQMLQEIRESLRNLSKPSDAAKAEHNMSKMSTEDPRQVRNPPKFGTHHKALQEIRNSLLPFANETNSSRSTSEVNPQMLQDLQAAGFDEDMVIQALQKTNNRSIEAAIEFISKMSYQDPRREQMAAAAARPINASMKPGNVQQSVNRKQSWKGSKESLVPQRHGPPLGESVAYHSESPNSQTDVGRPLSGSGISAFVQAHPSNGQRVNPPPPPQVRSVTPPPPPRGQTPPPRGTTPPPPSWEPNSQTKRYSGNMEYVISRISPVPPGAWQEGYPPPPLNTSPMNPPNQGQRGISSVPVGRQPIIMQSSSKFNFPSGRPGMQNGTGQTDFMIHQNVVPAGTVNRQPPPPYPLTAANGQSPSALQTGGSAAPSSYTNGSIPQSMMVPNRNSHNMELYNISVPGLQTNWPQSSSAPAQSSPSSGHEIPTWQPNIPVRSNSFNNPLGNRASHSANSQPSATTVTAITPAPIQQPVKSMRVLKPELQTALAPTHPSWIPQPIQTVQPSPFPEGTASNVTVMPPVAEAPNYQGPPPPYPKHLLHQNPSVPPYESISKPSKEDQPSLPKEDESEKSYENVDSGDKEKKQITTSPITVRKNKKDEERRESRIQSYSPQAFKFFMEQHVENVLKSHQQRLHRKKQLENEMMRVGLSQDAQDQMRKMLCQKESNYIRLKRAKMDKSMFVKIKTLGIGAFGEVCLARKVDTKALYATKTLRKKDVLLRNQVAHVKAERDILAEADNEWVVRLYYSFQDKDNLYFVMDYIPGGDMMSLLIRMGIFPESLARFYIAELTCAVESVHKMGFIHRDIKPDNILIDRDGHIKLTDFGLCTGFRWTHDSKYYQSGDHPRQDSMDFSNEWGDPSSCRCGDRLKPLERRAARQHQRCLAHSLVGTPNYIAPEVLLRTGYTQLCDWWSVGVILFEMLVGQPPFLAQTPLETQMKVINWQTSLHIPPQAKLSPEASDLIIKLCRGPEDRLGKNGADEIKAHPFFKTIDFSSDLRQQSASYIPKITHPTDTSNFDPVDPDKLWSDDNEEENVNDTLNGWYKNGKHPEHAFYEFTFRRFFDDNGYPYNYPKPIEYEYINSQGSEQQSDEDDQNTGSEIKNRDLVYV
In short: (§1)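 Radiometric 33P-ATP kinase reaction in 20 mM Hepes pH 7.5, 10 mM MgCl2, 1 mM EGTA, 0.01% Brij35, 0.02 mg/ml BSA, 0.1 mM Na3VO4, 2 mM DTT, 1% DMSO. Compound preincubated with kinase and substrate 20 min, then 2 h at room temperature; P81 filter-binding read-out. IC50 (nM) from 10-point singlet curves.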

[2] = target: T2, LATS2 (Homo sapiens, UniProt Q9NRM7); assay: RBC HotSpot kinase assay (33P-ATP, P81 filter-binding), LATS2; details: read-out: LATS2 IC50
T2 sequence (Q9NRM7 1-1088): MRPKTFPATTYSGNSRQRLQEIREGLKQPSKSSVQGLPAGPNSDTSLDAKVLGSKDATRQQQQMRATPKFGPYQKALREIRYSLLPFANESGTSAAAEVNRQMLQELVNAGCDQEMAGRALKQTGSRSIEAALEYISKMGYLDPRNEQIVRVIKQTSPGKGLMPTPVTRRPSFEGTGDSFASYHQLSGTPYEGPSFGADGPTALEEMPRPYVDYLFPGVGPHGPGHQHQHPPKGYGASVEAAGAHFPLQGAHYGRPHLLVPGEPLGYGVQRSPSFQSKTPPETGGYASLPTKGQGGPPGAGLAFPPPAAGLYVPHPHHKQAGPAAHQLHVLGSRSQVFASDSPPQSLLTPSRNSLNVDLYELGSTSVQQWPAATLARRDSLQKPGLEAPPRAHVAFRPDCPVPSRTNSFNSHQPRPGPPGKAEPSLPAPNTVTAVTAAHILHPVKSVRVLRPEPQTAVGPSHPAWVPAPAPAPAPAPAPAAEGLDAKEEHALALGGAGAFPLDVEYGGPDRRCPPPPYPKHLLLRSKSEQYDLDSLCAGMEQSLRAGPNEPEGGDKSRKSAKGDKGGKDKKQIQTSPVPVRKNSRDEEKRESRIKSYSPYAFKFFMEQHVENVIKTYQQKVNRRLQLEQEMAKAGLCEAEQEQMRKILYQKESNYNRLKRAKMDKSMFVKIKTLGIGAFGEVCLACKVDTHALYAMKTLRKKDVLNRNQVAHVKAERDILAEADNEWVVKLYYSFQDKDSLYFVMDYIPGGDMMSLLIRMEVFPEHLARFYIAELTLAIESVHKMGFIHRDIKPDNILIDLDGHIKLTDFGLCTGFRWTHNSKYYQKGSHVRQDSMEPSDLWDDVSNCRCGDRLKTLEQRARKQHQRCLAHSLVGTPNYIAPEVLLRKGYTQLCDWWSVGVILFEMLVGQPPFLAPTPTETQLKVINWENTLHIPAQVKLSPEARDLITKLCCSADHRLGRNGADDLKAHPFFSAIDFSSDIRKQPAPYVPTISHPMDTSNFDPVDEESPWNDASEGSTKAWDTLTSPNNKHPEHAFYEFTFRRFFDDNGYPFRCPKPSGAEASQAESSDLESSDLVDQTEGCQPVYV
In short: as §1

[3] = target: AKT (Homo sapiens, UniProt P31749); assay: RBC HotSpot kinase assay (33P-ATP, P81 filter-binding), AKT; details: read-out: AKT IC50
Sequence of AKT (P31749 whole entry): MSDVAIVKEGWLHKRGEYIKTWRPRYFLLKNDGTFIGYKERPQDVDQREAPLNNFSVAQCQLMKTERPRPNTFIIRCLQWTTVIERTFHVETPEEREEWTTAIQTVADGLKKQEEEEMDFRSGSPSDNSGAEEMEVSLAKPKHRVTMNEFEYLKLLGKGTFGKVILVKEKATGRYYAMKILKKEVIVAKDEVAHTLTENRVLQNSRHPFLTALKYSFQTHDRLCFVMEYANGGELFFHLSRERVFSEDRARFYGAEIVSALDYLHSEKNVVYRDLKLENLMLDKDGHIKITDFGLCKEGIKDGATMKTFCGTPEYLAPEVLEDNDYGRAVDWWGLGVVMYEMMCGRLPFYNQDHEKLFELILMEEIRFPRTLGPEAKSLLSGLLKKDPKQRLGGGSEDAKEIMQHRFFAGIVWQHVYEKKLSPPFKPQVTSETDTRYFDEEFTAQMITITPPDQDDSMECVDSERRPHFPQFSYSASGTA
In short: as §1

[4] = Table 28, biochemical kinase assay
[5] = Table 32, biochemical kinase assay

| IC50 [1, 4] [nM] | IC50 [2, 4] [nM] | IC50 [3, 4] [nM] | SMILES | further results |
| --- | --- | --- | --- | --- |
| 4.3 | 1 | 67.3 | NCc1ccc(-c2cc(-c3ccnc4[nH]cc(F)c34)ccc2C2CCNCC2)cc1 [Compound 149, (5′-(3-fluoro-1H-pyrrolo[2,3-b]pyridin-4-yl)-2′-(piperidin-4-yl)-[1,1′-biphenyl]-4-yl)methanamine] | – |
| – | – | – | Cc1cc(-c2ccnc3[nH]cc(C#N)c23)cc(F)c1[C@@]1(O)[C@H](C)CN(C(=O)C(N)C(F)F)C[C@@H]1C (stereo partly drawn) [Compound 2019, 4-(4-((3S,4s,5R)-1-(2-amino-3,3-difluoropropanoyl)-4-hydroxy-3,5-dimethylpiperidin-4-yl)-3-fluoro-5-methylphenyl)-1H-pyrrolo[2,3-b]pyridine-3-carbonitrile] | IC50 ([1]; biochemical kinase inhibition): 7 nM; IC50 ([2]; biochemical kinase inhibition): 7 nM; IC50 ([3]; biochemical kinase inhibition): 1220 nM |
| 24 | 37 | 383 | CC1CC(O)(c2ccc(-c3ccnc4[nH]cc(F)c34)cc2Cl)CCN1 (stereo not drawn) [Compound 98, 4-(2-chloro-4-(3-fluoro-1H-pyrrolo[2,3-b]pyridin-4-yl)phenyl)-2-methylpiperidin-4-ol] | – |
| 17 | 7 | 743 | CC(C)c1cc(-c2ccnc3[nH]cc(-c4ccccc4)c23)ccc1CN [Compound 202, (2-isopropyl-4-(3-phenyl-1H-pyrrolo[2,3-b]pyridin-4-yl)phenyl)methanamine] | – |
| 157 | 190 | 233 | CC1CN(C)CC(C)C1(O)c1ccc(-c2ccnc3[nH]cc(F)c23)cc1-c1ccccc1 (stereo not drawn) [Compound 129, 4-(5-(3-fluoro-1H-pyrrolo[2,3-b]pyridin-4-yl)-[1,1′-biphenyl]-2-yl)-1,3,5-trimethylpiperidin-4-ol] | – |
| 897 | 465 | > 10000 | CC(C)(C)OC(=O)N1CCC(O)(c2ccc(-c3ccnc4[nH]ccc34)cc2)CC1 [Compound 141, tert-butyl 4-(4-(1H-pyrrolo[2,3-b]pyridin-4-yl)phenyl)-4-hydroxypiperidine-1-carboxylate] | – |
| 7.9 | 4.2 | 179 | Cc1cc(-c2ccnc3[nH]cc(F)c23)cc(F)c1[C@@]1(O)[C@H](C)CN(C2CCNCC2)C[C@@H]1C [Compound 91, (3S,4s,5R)-4-(2-fluoro-4-(3-fluoro-1H-pyrrolo[2,3-b]pyridin-4-yl)-6-methylphenyl)-3,5-dimethyl-[1,4′-bipiperidin]-4-ol] | – |
| – | – | – | CC(C)(N)C(=O)NCC(O)(c1ccc(Cl)cc1)c1ccc(-c2ccnc3[nH]ccc23)cc1 (stereo not drawn) [Compound 1028, N-(2-(4-(1H-pyrrolo[2,3-b]pyridin-4-yl)phenyl)-2-(4-chlorophenyl)-2-hydroxyethyl)-2-amino-2-methylpropanamide] | IC50 [1, 5]: 1.9 nM; IC50 [2, 5]: 2.4 nM; IC50 [3, 5]: 1.9 nM |
| – | – | – | NCC(=O)NCC(=O)NCC(O)(c1ccc(Cl)cc1)c1ccc(-c2ccnc3[nH]ccc23)cc1 (stereo not drawn) [Compound 1025, N-(2-(4-(1H-pyrrolo[2,3-b]pyridin-4-yl)phenyl)-2-(4-chlorophenyl)-2-hydroxyethyl)-2-(2-aminoacetamido)acetamide] | IC50 [1, 5]: 4.1 nM; IC50 [2, 5]: 4.5 nM; IC50 [3, 5]: 3.1 nM |
| 201 | 81.2 | 10.1 | Cc1cc(-c2ccnc3[nH]cc(F)c23)cc(Cl)c1[C@@]1(O)[C@H](C)CNC[C@@H]1C [Compound 12, (3S,4s,5R)-4-(2-chloro-4-(3-fluoro-1H-pyrrolo[2,3-b]pyridin-4-yl)-6-methylphenyl)-3,5-dimethylpiperidin-4-ol] | – |
| 145 | 326 | 6580 | Cc1nc(-c2ccnc3[nH]cc(F)c23)ccc1C1(O)CCNCC1 [Compound 104, 4-(6-(3-fluoro-1H-pyrrolo[2,3-b]pyridin-4-yl)-2-methylpyridin-3-yl)piperidin-4-ol] | – |
| 110 | 253 | > 10000 | O=C1NCc2ccc(-c3ccnc4[nH]ccc34)cc21 [Compound 259, 6-(1H-pyrrolo[2,3-b]pyridin-4-yl)isoindolin-1-one] | – |
| 10.2 | 74.9 | 1620 | CC(C)(N)c1ccc(-c2ccnc3[nH]ccc23)cc1-c1ccccc1 [Compound 206, 2-(5-(1H-pyrrolo[2,3-b]pyridin-4-yl)-[1,1′-biphenyl]-2-yl)propan-2-amine] | – |
| 8.3 | 15 | 349 | CN(C)C(C)(C)c1ccc(-c2ccnc3[nH]cc(F)c23)cc1 [Compound 208, 2-(4-(3-fluoro-1H-pyrrolo[2,3-b]pyridin-4-yl)phenyl)-N,N-dimethylpropan-2-amine] | – |
| – | – | – | CC(C)(O)C(=O)NCC(O)(c1ccc(Cl)cc1)c1ccc(-c2ccnc3[nH]ccc23)cc1 (stereo not drawn) [Compound 1018, N-(2-(4-(1H-pyrrolo[2,3-b]pyridin-4-yl)phenyl)-2-(4-chlorophenyl)-2-hydroxyethyl)-2-hydroxy-2-methylpropanamide] | IC50 [1, 5]: 18.7 nM; IC50 [2, 5]: 10.1 nM; IC50 [3, 5]: 73.6 nM |
| 63 | 71 | 640 | c1cc(-c2ccc(C3CCNCC3)nc2)c2cc[nH]c2n1 [Compound 178, 4-(6-(piperidin-4-yl)pyridin-3-yl)-1H-pyrrolo[2,3-b]pyridine] | – |
| 19.9 | 5 | 140 | C[C@@H]1CN(C(=O)CN)C[C@H](C)[C@@]1(O)c1ccc(-c2ccnc3[nH]cc(F)c23)cc1Cl [Compound 75, 2-amino-1-((3R,4s,S5S)-4-(2-chloro-4-(3-fluoro-1H-pyrrolo[2,3-b]pyridin-4-yl)phenyl)-4-hydroxy-3,5-dimethylpiperid-1-yl)ethan-1-one] | – |
| 7.4 | 10 | 124 | COC(=O)C1(c2ccc(-c3ccnc4[nH]cc(F)c34)cc2Cl)CCNCC1 [Compound 198, methyl 4-(2-chloro-4-(3-fluoro-1H-pyrrolo[2,3-b]pyridin-4-yl)phenyl)piperidine-4-carboxylate] | – |
